Columns and labels:
5-Lipoxygenase = biological target: T1, 5-Lipoxygenase (Homo sapiens, UniProt P09917); experiment: Inhibition of 5-Lipoxygenase in Human Whole Blood (ionophore A23187-stimulated LTB4); format: cell-based
T1 construct: endogenous in cells; host or cells: whole blood of male human donors (results per 10^6 neutrophils)
T1 sequence (P09917 1-674): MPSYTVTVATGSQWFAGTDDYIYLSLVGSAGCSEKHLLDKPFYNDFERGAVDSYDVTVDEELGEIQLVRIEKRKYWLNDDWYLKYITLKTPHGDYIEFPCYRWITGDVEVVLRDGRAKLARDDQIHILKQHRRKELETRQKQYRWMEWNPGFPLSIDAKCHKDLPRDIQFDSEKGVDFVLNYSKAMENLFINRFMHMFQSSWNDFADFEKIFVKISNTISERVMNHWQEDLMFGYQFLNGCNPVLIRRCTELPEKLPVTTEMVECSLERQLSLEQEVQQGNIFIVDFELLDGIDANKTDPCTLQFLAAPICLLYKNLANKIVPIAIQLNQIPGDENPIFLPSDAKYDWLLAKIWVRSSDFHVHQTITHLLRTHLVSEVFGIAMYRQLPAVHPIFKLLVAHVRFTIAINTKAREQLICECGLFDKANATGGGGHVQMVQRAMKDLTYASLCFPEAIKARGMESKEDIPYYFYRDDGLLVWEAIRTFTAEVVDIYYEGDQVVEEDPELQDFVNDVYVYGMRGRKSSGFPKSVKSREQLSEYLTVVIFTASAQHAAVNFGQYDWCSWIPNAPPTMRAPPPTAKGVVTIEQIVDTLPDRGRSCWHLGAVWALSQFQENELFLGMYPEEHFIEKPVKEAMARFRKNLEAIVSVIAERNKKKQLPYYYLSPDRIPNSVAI
Method: 1. Inhibition of 5-Lipoxygenase in Human Whole Blood
Blood is obtained in 50-100 ml quantities from male donors. White blood cell counts and differentials are made. Two ml of blood are placed in a 15 ml polypropylene test tube. Test compounds are solubilized in dimethylsulfoxide and diluted in 1:10 in 10% bovine serum albumin in phosphate buffered saline, pH 7.4 resulting in a final dimethylsulfoxide concentration of 0.1% in the blood. Then, solutions of test compounds are added to the blood in a shaking water bath at 37° C. for 10 minutes prior to the addition of 30 μM calcium ionophore (A23187, Sigma). After ionophore administration, whole blood samples are mixed and incubated for 20 minutes at 37° C. in a shaking water bath. Incubation is terminated by placing samples in an ice bath and immediately adding ethylene glycol-bis-(β-aminoethyl ether)-N, N,N',N'-tetraacetic acid (10 mM). Samples are mixed and centrifuged at 1200×g for 15 minutes at […]. Preparation of samples for evaluation by RIA or ELISA is carded out by the following protocol. Plasma is removed from sample tubes, placed in 15 ml polypropylene test tubes containing 8 ml methanol, and then vortexed to precipitate protein. Samples are stored at -70° C. overnight. The next day, samples are centrifuged at 200×g for 15 minutes at 4° C. to pellet the precipitate. Samples are dried in a Savant SpeedVac Concentrator, Model SVC 200H, reconstituted to original volume with ice cold RIA or ELISA buffer, and stored at -70° C. until assayed. The assay for eicosanoids (LTB4, TxB2, and PGE2) is performed as described by the manufacturer of the [^3 H]-RIA kit or ELISA kit (LTB4 -Amersham, TxB2 and PGE2 - Caymen Chemical).
The total eicosanoid level in 2 ml of blood is calculated and reported as ng/10^6 neutrophils. Significance is determined by a one-way analysis of variance with least significant difference (LSD) comparisons to control (p≤0.05) and IC50 's (μM) are determined by regression analysis (Finney, 1978). Drug effects are expressed as percent change from control values.

LTB4 Synthesis = experiment: Reverse Passive Arthus Reaction (pleurisy, LTB4 in pleural exudate); format: in vivo, male Lewis rats; conditions: for % Inhibition of LTB4 / ED50: standard drugs; for % Inhibition LTB4 Synthesis: 25 mg/kg p.o.; for ED50: Rattus norvegicus, po, ED50 printed in parentheses
Method: 3. Reverse Passive Arthus Reaction
A reverse passive Arthus reaction is induced in the pleural cavity of male Lewis rats (150°-200 g; fasted overnight prior to use) by the intravenous administration of bovine serum albumin (BSA; 4 mg/0.2 ml) followed 30 minutes later by the injection of rabbit anti-BSA (1 mg/0.2 ml; lyophilized IgG fraction; Organon Teknika, West Chester, Pa.) into the right pleural space under halothane anesthesia. Drugs or vehicle (0.5% Tween-80) control are administered orally in a volume of 1 ml/100 g body weight at 1 hour prior to the anti-BSA. Animals are sacrificed at either the time of peak eicosanoid production (i.e. 5 minutes after anti-BSA for immunoreactive TxB2, 10 minutes for immunoreactive LTB4, 20 minutes for immunoreactive LTC4) or at the time of peak neutrophil infiltration (4 hours after anti-BSA) by CO2 inhalation. The pleural cavity is then exposed, the fluid exudate removed by gentle vacuum aspiration and the volume of exudate is recorded. For the determination of cellular infiltration, the pleural cavity is rinsed with 3 ml of 0.1% EDTA in sterile saline, and the recovered wash is pooled with the exudate. Cell number is determined on a model ZBI Coulter counter. For determination of eicosanoid production, undiluted pleural exudate is microfuged and the supernatant is extracted with ethanol (8-10 times volume). Extracts are either stored at -20° C., or are evaporated to dryness under a stream of N2 and reconstituted in radioimmunoassay (RIA) buffer.
Eicosanoids are quantitated by RIA according to the procedure specified by the RIA kit manufacturer (Advanced Magnetics, Cambridge, MA). Briefly, 100 μl of ^3 H-labeled eicosanoid and 100 μl of specific antibody ,are sequentially added to 100 μl of extracted pleural exudate in BGG-phosphate buffer which contains 0.01M phosphate, 0.1% bovine gamma globulin and 0.1% sodium azide at pH 7.0. Antibody-bound eicosanoid is separated from unbound eicosanoid by the addition of 750 μl of dextran (0.4%)-coated charcoal (Norit A) containing 0.1% sodium azide. The mixture is centrifuged at 2000 RPM at 5° C. for 15 minutes to pellet the charcoal and adsorbed unbound eicosanoid. Antibody-bound labeled eicosanoid is quantitated by counting in a liquid scintillation counter, and is correlated to concentration by a standard curve.

Lipoxygenase = experiment: Ex-Vivo Measurement of Lipoxygenase Inhibition in Orally Dosed Rats (LTB4 in A23187-stimulated blood); design: species or system Male Sprague Dawley rats; conditions: ex vivo rat, p.o., pretreatment 3 hr
Method: 2. […] After an interval of 3 or 6 hours, the rats were anesthetized with metofane (n =4/group) and blood collected in heparinized tubes. White blood cell counts and differentials were made. One ml of blood from each animal was placed in a 5 ml plastic tube in a shaker bath at 37° C. A23187 at a final concentration of 10 μM was added to the blood and the blood vortexed and incubated for 15 min at 37° C. with gentle shaking. Incubation was terminated by vortexing sample and centrifuging immediately at 1200 xG for 15 min at 4° C. The plasma was transferred to 15 ml plastic tubes each containing 8 ml of methanol to precipitate protein followed by vortexing. The samples were stored at -70° C. overnight and the next day the samples were centrifuged at 800 xG for 15 min to pellet the precipitate. The samples were dried in a Savant SpeedVac Concentrator Model SVC 200H and reconstituted to the original volume with cold RIA or ELISA buffer. The reconstituted samples were stored at -70° C. until assayed. The assay for LTB4 was perforated according to the directions of the [^3 H]RIA kit or ELISA kit (Seragen). The total metabolite level in 1 ml of blood is calculated and reported as ng/10^6 neutrophils. Significance is determined by a one-way analysis of variance with LSD comparisons to control (p<0.05).

Structure (SMILES): NC(=S)N(O)Cc1ccc(OCCc2csc(-c3ccccc3)n2)cc1 [Example 18]
- inhibition at 10 µM (5-Lipoxygenase): 94%

Structure (SMILES): Cc1oc(-c2ccc(SC(F)(F)F)cc2)nc1CCOc1ccc(CN(O)C(N)=O)cc1 [Example 16, 1-Hydroxy-1-[4-[2-[5-methyl-2-(4-trifluoromethylsulfanyl-phenyl)-oxazol-4yl]-ethoxy]-benzyl]-urea]
- inhibition at 1 µM (5-Lipoxygenase): 50%

Structure (SMILES): CC(C(=O)O)c1cccc(C(=O)c2ccccc2)c1 (centres unmarked) [Ketoprofen, reference compound]
- % Inhibition of LTB4 (LTB4 Synthesis; 10 mg/kg p.o.): 35%

Structure (SMILES): Cc1oc(-c2ccccc2F)nc1CCOc1ccc(CN(O)C(N)=O)cc1 [Example 6, 1-[4-[2-[2-(2-Fluoro-phenyl)-5-methyl-oxazol-4-yl]-ethoxy]-benzyl]-1-hydroxy-urea]
- % Inhibition of LTB4 (Lipoxygenase; dose 10 (mg/kg)): 71%
- inhibition at 1 µM (5-Lipoxygenase): 54%
- % Inhibition LTB4 Synthesis (LTB4 Synthesis): 48%

Structure (SMILES): NC1=NN(c2cccc(C(F)(F)F)c2)CC1 [BW755C, reference compound]
- ED50 (LTB4 Synthesis): 23 mg/kg

Structure (SMILES): COc1ccc(-c2nc(CCOc3ccc(CN(O)C(N)=O)cc3)c(C)o2)cc1 [Example 3, 1-Hydroxy-1-[4-[2-[2-(4-methoxy-phenyl)-5-methyl-oxazol-4-yl]-ethoxy]benzyl]-urea]
- % Inhibition of LTB4 (Lipoxygenase; dose 25 (mg/kg)): 32%
- inhibition at 1 µM (5-Lipoxygenase): 57%

Structure (SMILES): Cc1oc(-c2ccccc2)nc1CCOc1cccc(C(C)N(O)C(N)=O)c1 (centres unmarked) [Example 5, 1-Hydroxy-1-[1-[3-[2-(5-methyl-2-phenyl-oxazol-4-yl)-ethoxy]-phenyl]ethyl]-urea]
- inhibition at 1 µM (5-Lipoxygenase): 34%

Structure (SMILES): Cc1oc(-c2cccc(F)c2)nc1CCOc1ccc(CN(O)C(N)=O)cc1 [Example 7]
- % Inhibition of LTB4 (Lipoxygenase; dose 10 (mg/kg)): 79%
- inhibition at 1 µM (5-Lipoxygenase): 63%
- % Inhibition LTB4 Synthesis (LTB4 Synthesis): 38%

Structure (SMILES): Cc1oc(-c2ccc(C(F)(F)F)cc2)nc1CCOc1ccc(CN(O)C(N)=O)cc1F [Example 14]
- inhibition at 1 µM (5-Lipoxygenase): 36%

Structure (SMILES): NC(=O)N(O)Cc1cccc(OCCc2csc(-c3ccc(C(F)(F)F)cc3)n2)c1 [Example 20, 1-Hydroxy-1-[3-[2-[2-(4-trifluoromethyl-phenyl)-thiazol-4-yl]-ethoxy]-benzyl]-urea]
- inhibition at 1 µM (5-Lipoxygenase): 30%

Structure (SMILES): Cc1oc(-c2ccccc2)nc1CCOc1cccc(CN(O)C(N)=O)c1 [Example 2, 1-Hydroxy-1-[3-[2-(5-methyl-2-phenyl-oxazol-4-yl)-ethoxy]-benzyl]-urea]
- % Inhibition of LTB4 (Lipoxygenase; dose 25 (mg/kg)): 21%
- inhibition at 1 µM (5-Lipoxygenase): 51%
- % Inhibition LTB4 Synthesis (LTB4 Synthesis): 53%

Structure (SMILES): COC(=O)N(O)Cc1ccc(OCCN(C)c2nc3ccccc3o2)cc1 [Example 24]
- inhibition at 10 µM (5-Lipoxygenase): 77%

Structure (SMILES): Cc1oc(-c2ccc(C(F)(F)F)cc2)nc1CCOc1c(Cl)cc(CN(O)C(N)=O)cc1Cl [Example 15, 1-[3,5-Dichloro-4-[2-[5-methyl-2-(4-trifluoromethyl-phenyl)-oxazol-4-yl]ethoxy]-benzyl]-1-hydroxy-urea]
- inhibition at 1 µM (5-Lipoxygenase): 38%

Structure (SMILES): O=C1CCN(c2ccccc2)N1 [Phenidone, reference compound]
- ED50 (LTB4 Synthesis): 10 mg/kg

Structure (SMILES): CN(CCOc1ccc(CN(O)C(N)=O)cc1)c1nc2ccccc2o1 [Example 22, 1-[4-[2-(-Benzoxazol-2-yl-methyl-amino)-ethoxy]-benzyl]-1-hydroxy-urea]
- inhibition at 10 µM (5-Lipoxygenase): 60%

Structure (SMILES): Cc1oc(-c2ccc(F)cc2)nc1CCOc1ccc(CN(O)C(N)=O)cc1 [Example 8, 1-[4-[2-[2-(4-Fluoro-phenyl)-5-methyl-oxazol-4-yl)-ethoxy]-benzyl]-1-hydroxy-urea]
- % Inhibition of LTB4 (Lipoxygenase; dose 10 (mg/kg)): 66%
- inhibition at 1 µM (5-Lipoxygenase): 70%

Structure (SMILES): CC(=O)N(O)Cc1ccc(OCCN(C)c2nc3ccccc3o2)cc1 [Example 23, N-[4-[2-(Benzoxazol-2-yl-methyl-amino)-ethoxy]-benzyl]-N-hydroxy-acetamide]
- % Inhibition of LTB4 (Lipoxygenase; dose 25 (mg/kg)): 78%
- inhibition at 1 µM (5-Lipoxygenase): 39%

Structure (SMILES): COc1ccc2c(c1)c(CC(=O)O)c(C)n2C(=O)c1ccc(Cl)cc1 [Indomethacin, reference compound]
- % Inhibition of LTB4 (LTB4 Synthesis; 4 mg/kg p.o.): 12%

Structure (SMILES): COc1ccc2cc([C@H](C)C(=O)O)ccc2c1 [Naproxen, reference compound]
- % Inhibition of LTB4 (LTB4 Synthesis; 4 mg/kg p.o.): 0%

Structure (SMILES): Cc1cc(OCCc2nc(-c3ccccc3)oc2C)cc(C)c1CN(O)C(N)=O [Example 9, 1-[2,6-Dimethyl-4-[2-(5-methyl-2-phenyl-oxazol-4-yl)-ethoxy]-benzyl]-1-hydroxy-urea]
- inhibition at 10 µM (5-Lipoxygenase): 42%

Structure (SMILES): NC(=O)N(O)Cc1ccc(OCCc2csc(-c3ccccc3)n2)cc1 [Example 17, 1-Hydroxy-1-[4-[2-(2-phenyl-thiazol-4-yl)-ethoxy]-benzyl]-urea]
- inhibition at 10 µM (5-Lipoxygenase): 93%

Structure (SMILES): Cc1ccc(-c2nc(CCOc3ccc(CN(O)C(N)=O)cc3)c(C)o2)cc1 [Example 11, 1-Hydroxy-1-[4-[2-(5-methyl-2-(p-tolyl)-oxazol-4-yl]-ethoxy]-benzyl]-urea]
- inhibition at 1 µM (5-Lipoxygenase): 40%

Structure (SMILES): Cc1oc(-c2ccccc2)nc1CCOc1ccc(CN(O)C(N)=O)cc1F [Example 12, 1-[3-Fluoro-4-[2-(5-methyl-2-phenyl-oxazol-4-yl)-ethoxy]-benzyl]-1-hydroxy-urea]
- % Inhibition of LTB4 (Lipoxygenase; dose 10 (mg/kg)): 52%
- inhibition at 1 µM (5-Lipoxygenase): 71%
- % Inhibition LTB4 Synthesis (LTB4 Synthesis): 58%

Structure (SMILES): O=C(O)Cc1ccccc1Nc1c(Cl)cccc1Cl [Diclofenac, reference compound]
- % Inhibition of LTB4 (LTB4 Synthesis; 10 mg/kg p.o.): 0%

From US5428048A, “Aryl-N-hydroxyureas as inhibitors of 5-lipoxygenase and anto-arteriosclerotic agents” (American Home Products Corporation, priority 1993, dated 1995)
